From PubChem BioAssay (NCI)
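Following 48 hours of exposure in 96-well plates, responses at five concentrations were used to interpolate endpoints linearly. GI50: concentration for 50% inhibition of growth. TGI marks complete inhibition of growth.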

Tests used:
Test in all cases: NCI anticancer screen, dose series, 48 h
786-0 renal = system: 786-0 renal
A498 renal = system: A498 renal
A549 NSCLC = system: A549 NSCLC
ACHN renal = system: ACHN renal
BT-549 breast = system: BT-549 breast
CAKI-1 renal = system: CAKI-1 renal
CCRF-CEM leukemia = system: CCRF-CEM leukemia
COLO 205 colon = system: COLO 205 colon
DU-145 prostate = system: DU-145 prostate
EKVX NSCLC = system: EKVX NSCLC
HCC-2998 colon = system: HCC-2998 colon
HCT-116 colon = system: HCT-116 colon
HCT-15 colon = system: HCT-15 colon
HL-60(TB) leukemia = system: HL-60(TB) leukemia
HOP-62 NSCLC = system: HOP-62 NSCLC
HOP-92 NSCLC = system: HOP-92 NSCLC
HS 578T breast = system: HS 578T breast
HT29 colon = system: HT29 colon
IGROV1 ovarian = system: IGROV1 ovarian
K-562 leukemia = system: K-562 leukemia
KM12 colon = system: KM12 colon
LOX IMVI melanoma = system: LOX IMVI melanoma
M14 melanoma = system: M14 melanoma
MALME-3M melanoma = system: MALME-3M melanoma
MCF7 breast = system: MCF7 breast
MDA-MB-231 breast = system: MDA-MB-231 breast
MDA-MB-435 = system: MDA-MB-435
MOLT-4 leukemia = system: MOLT-4 leukemia
NCI-H226 lung = system: NCI-H226 lung
NCI-H23 lung = system: NCI-H23 lung
NCI-H460 lung = system: NCI-H460 lung
NCI-H522 lung = system: NCI-H522 lung
NCI/ADR-RES ovarian = system: NCI/ADR-RES ovarian
OVCAR-3 ovarian = system: OVCAR-3 ovarian
OVCAR-4 ovarian = system: OVCAR-4 ovarian
OVCAR-5 ovarian = system: OVCAR-5 ovarian
OVCAR-8 ovarian = system: OVCAR-8 ovarian
PC-3 prostate = system: PC-3 prostate
RPMI-8226 leukemia = system: RPMI-8226 leukemia
RXF 393 renal = system: RXF 393 renal
SF-268 CNS = system: SF-268 CNS
SF-295 CNS = system: SF-295 CNS
SF-539 CNS = system: SF-539 CNS
SK-MEL-2 melanoma = system: SK-MEL-2 melanoma
SK-MEL-28 melanoma = system: SK-MEL-28 melanoma
SK-MEL-5 melanoma = system: SK-MEL-5 melanoma
SK-OV-3 ovarian = system: SK-OV-3 ovarian
SN12C renal = system: SN12C renal
SNB-19 CNS = system: SNB-19 CNS
SNB-75 CNS = system: SNB-75 CNS
SR leukemia = system: SR leukemia
SW-620 colon = system: SW-620 colon
T-47D breast = system: T-47D breast
TK-10 renal = system: TK-10 renal
U251 CNS = system: U251 CNS
UACC-257 melanoma = system: UACC-257 melanoma
UACC-62 melanoma = system: UACC-62 melanoma
UO-31 renal = system: UO-31 renal

Work on `CN1CCN(c2ccc3nc(-c4cc(C(C)(C)C)c(O)c(C(C)(C)C)c4)[nH]c3c2)CC1` yielded a GI50 (786-0 renal) of 1.82 µM, a TGI (786-0 renal) of 3.5 µM and a GI50 (A498 renal) of 7.23 µM. For the same compound, the TGI (A498 renal) was 21.2 µM, the GI50 (A549 NSCLC) was 3.26 µM and the TGI (A549 NSCLC) was 11.5 µM. For the same compound, the GI50 (ACHN renal) was 3.06 µM, the TGI (ACHN renal) was 8.62 µM and the GI50 (BT-549 breast) was 2.23 µM. The TGI (BT-549 breast) was 6.43 µM, the GI50 (CAKI-1 renal) was 1.75 µM and the TGI (CAKI-1 renal) was 3.49 µM. For the same compound, the GI50 (CCRF-CEM leukemia) was 2.22 µM, the TGI (CCRF-CEM leukemia) was 5.83 µM and the GI50 (COLO 205 colon) was 2.02 µM. The TGI (COLO 205 colon) was 4.26 µM, the GI50 (DU-145 prostate) was 4.66 µM and the TGI (DU-145 prostate) was 16 µM. For the same compound, the GI50 (EKVX NSCLC) was 4.3 µM, the TGI (EKVX NSCLC) was 16.5 µM and the GI50 (HCC-2998 colon) was 1.85 µM. For the same compound, the TGI (HCC-2998 colon) was 3.43 µM, the GI50 (HCT-116 colon) was 1.85 µM and the TGI (HCT-116 colon) was 4.06 µM. For the same compound, the GI50 (HCT-15 colon) was 1.71 µM, the TGI (HCT-15 colon) was 3.49 µM and the GI50 (HL-60(TB) leukemia) was 2.22 µM. For the same compound, the TGI (HL-60(TB) leukemia) was 4.52 µM, the GI50 (HOP-62 NSCLC) was 2.29 µM and the TGI (HOP-62 NSCLC) was 5 µM. For the same compound, the GI50 (HOP-92 NSCLC) was 1.82 µM, the TGI (HOP-92 NSCLC) was 6.4 µM and the GI50 (HS 578T breast) was 2.33 µM. For the same compound, the TGI (HS 578T breast) was 5.51 µM, the GI50 (HT29 colon) was 2.1 µM and the TGI (HT29 colon) was 4.41 µM. It also gave a GI50 (IGROV1 ovarian) of 3.65 µM, a TGI (IGROV1 ovarian) of 12.6 µM and a GI50 (K-562 leukemia) of 1.94 µM. For the same compound, the TGI (K-562 leukemia) was 4.97 µM, the GI50 (KM12 colon) was 1.8 µM and the TGI (KM12 colon) was 4.32 µM. It also gave a GI50 (LOX IMVI melanoma) of 1.83 µM, a TGI (LOX IMVI melanoma) of 3.41 µM and a GI50 (M14 melanoma) of 1.68 µM. It also gave a TGI (M14 melanoma) of 3.37 µM, a GI50 (MALME-3M melanoma) of 1.55 µM and a TGI (MALME-3M melanoma) of 2.95 µM. For the same compound, the GI50 (MCF7 breast) was 1.8 µM, the TGI (MCF7 breast) was 4.14 µM and the GI50 (MDA-MB-231 breast) was 2.09 µM. For the same compound, the TGI (MDA-MB-231 breast) was 4.31 µM, the GI50 (MDA-MB-435) was 1.73 µM and the TGI (MDA-MB-435) was 3.16 µM. For the same compound, the GI50 (MOLT-4 leukemia) was 2.2 µM, the TGI (MOLT-4 leukemia) was 5.55 µM and the GI50 (NCI-H226 lung) was 14.7 µM. For the same compound, the TGI (NCI-H226 lung) was 32.4 µM, the GI50 (NCI-H23 lung) was 3.31 µM and the TGI (NCI-H23 lung) was 10.3 µM. For the same compound, the GI50 (NCI-H460 lung) was 1.99 µM, the TGI (NCI-H460 lung) was 3.7 µM and the GI50 (NCI-H522 lung) was 2.11 µM. It also gave a TGI (NCI-H522 lung) of 4.33 µM, a GI50 (NCI/ADR-RES ovarian) of 5.48 µM and a TGI (NCI/ADR-RES ovarian) of 20 µM. For the same compound, the GI50 (OVCAR-3 ovarian) was 4.06 µM, the TGI (OVCAR-3 ovarian) was 14 µM and the GI50 (OVCAR-4 ovarian) was 5.43 µM. It also gave a TGI (OVCAR-4 ovarian) of 19 µM, a GI50 (OVCAR-5 ovarian) of 3.53 µM and a TGI (OVCAR-5 ovarian) of 12 µM. For the same compound, the GI50 (OVCAR-8 ovarian) was 5 µM, the TGI (OVCAR-8 ovarian) was 19.1 µM and the GI50 (PC-3 prostate) was 1.92 µM. It also gave a TGI (PC-3 prostate) of 4.17 µM, a GI50 (RPMI-8226 leukemia) of 2.08 µM and a TGI (RPMI-8226 leukemia) of 4.85 µM. The GI50 (RXF 393 renal) was 1.72 µM, the TGI (RXF 393 renal) was 3.52 µM and the GI50 (SF-268 CNS) was 2.62 µM. The TGI (SF-268 CNS) was 7.14 µM, the GI50 (SF-295 CNS) was 1.83 µM and the TGI (SF-295 CNS) was 3.66 µM. The GI50 (SF-539 CNS) was 1.79 µM, the TGI (SF-539 CNS) was 3.35 µM and the GI50 (SK-MEL-2 melanoma) was 2.38 µM. It also gave a TGI (SK-MEL-2 melanoma) of 5.49 µM, a GI50 (SK-MEL-28 melanoma) of 1.91 µM and a TGI (SK-MEL-28 melanoma) of 3.4 µM. For the same compound, the GI50 (SK-MEL-5 melanoma) was 1.76 µM, the TGI (SK-MEL-5 melanoma) was 3.17 µM and the GI50 (SK-OV-3 ovarian) was 8.83 µM. The TGI (SK-OV-3 ovarian) was 21.8 µM, the GI50 (SN12C renal) was 4.64 µM and the TGI (SN12C renal) was 16.5 µM. The GI50 (SNB-19 CNS) was 3.29 µM, the TGI (SNB-19 CNS) was 12.4 µM and the GI50 (SNB-75 CNS) was 1.42 µM. It also gave a TGI (SNB-75 CNS) of 3.65 µM, a GI50 (SR leukemia) of 2.45 µM and a TGI (SR leukemia) of 8.58 µM. It also gave a GI50 (SW-620 colon) of 2.33 µM, a TGI (SW-620 colon) of 4.06 µM and a GI50 (T-47D breast) of 2.86 µM. It also gave a TGI (T-47D breast) of 7.61 µM, a GI50 (TK-10 renal) of 4.79 µM and a TGI (TK-10 renal) of 17.2 µM. It also gave a GI50 (U251 CNS) of 2.92 µM, a TGI (U251 CNS) of 8.59 µM and a GI50 (UACC-257 melanoma) of 2 µM. The TGI (UACC-257 melanoma) was 3.97 µM, the GI50 (UACC-62 melanoma) was 1.87 µM and the TGI (UACC-62 melanoma) was 3.38 µM. It also gave a GI50 (UO-31 renal) of 1.7 µM and a TGI (UO-31 renal) of 3.08 µM.
